According to PubChem BioAssay AID1191 (EPA DSSTox, 2008):
Active and inactive are the calls of the source.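 Rule for the calls: active = at least one hamster carcinogenic potency value with a tumor site listed for any sex group; inactive = no potency or tumor site yet a negative hamster study.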

Each compound was assayed on hamster chronic carcinogenicity bioassay, TD50 (assay: DSSTox (CPDBAS) Carcinogenic Potency Database Summary Hamster Bioassay Results).
Excerpt: The Carcinogenic Potency Database (CPDB) is a unique and widely used international resource of the results of over 6500 chronic, long-term animal cancer tests on over 1500 chemical substances. The CPDB provides easy access to the bioassay literature, with qualitative and quantitative analyses of both positive and negative experiments that have been published over the past 50 years in the general literature and by the National Cancer Institute/National Toxicology Program. The CPDB standardizes the diverse literature of cancer bioassays that vary widely in protocol, histopathological examination and nomenclature, and in the published author's choices of what information to provide in their papers. Results are reported in the CPDB for tests in rats, mice, hamsters, dogs, and nonhuman primates, and are based on the most positive result among all experiments for each sex-species. The DSSTox CPDBAS (all species) file incorporates data from the CPDB Summary Tables for the full list of over 1500 chemical substances tested in at least one species. Summary bioassay results for Hamster (TD50, tumor sites, male, female, both sexes) are provided in the CPDB Summary Tables and the DSSTox CPDBAS file for over 80 chemical substances.
TD50 is a standardized quantitative measure of carcinogenic potency (analogous to an LD50) and is reported in the CPDB Summary Table for each species. Activity Score for actives is computed by mapping of LOG10 (1/TD50_Hamster_mmol) activity values spanning range [MIN, MAX] onto Integer 1-100 Activity Score range, where 100 is highest potency and 1 is lowest: Activity Score = 100 * INTEGER[(log10(1/Activity) - MIN)/(MAX - MIN)]. If activity is reported but no TD50_Hamster_mmol value is computed, such as for a mixture, the Activity Score is assigned the activity value "50". […] Target sites are reported for each sex-species group with a positive result in the CPDB on the basis of a positive author's opinion for the particular site, using all results from both the general literature and NCI/NTP bioassays. If a chemical has two or more target sites listed, the results may be from different experiments, and a single site may be a target organ in more than one experiment, as well. Blank entry in TargetSites field indicates no results reported.
Compound `O=S(=O)(O)O` has a Potency of 118 mg/kg/day. In the case of `CCOC(=O)N(C)N=O`, the Potency was 0.127 mg/kg/day. For `C=CCN(CC(C)=O)N=O`, the Potency was 1.19 mg/kg/day. `O=C(O)c1ccncc1` was tested, and the outcome was “inactive; no positive results”. In the case of `CC(=O)N(O)c1ccc2c(c1)Cc1ccccc1-2`, the Potency was 2.1 mg/kg/day. In the case of `CCC1(c2ccccc2)C(=O)NC(=O)NC1=O`, the outcome was “inactive; no positive results”. For `CN(Cc1cnc2nc(N)nc(N)c2n1)c1ccc(C(=O)N[C@@H](CCC(=O)O)C(=O)O)cc1`, the outcome was “inactive; no positive results”. In the case of `CC1CN(N=O)CC(C)O1` (stereo not given), the Potency was 2 mg/kg/day. For `N#[N+]c1ccccc1`, the outcome was “inactive; no positive results”. In the case of `CN(N)C=O`, the Potency was 5.8 mg/kg/day. In the case of `C=C(C)C(=O)OC`, the outcome was “inactive; no positive results”. For `O=[N+]([O-])c1ccc2c3c(cccc13)CC2`, the outcome was “inactive”. `CC(C)OC(=O)Nc1ccccc1` was tested, and the outcome was “inactive; no positive results”. For `CN(C)N`, the Potency was 124 mg/kg/day. `CCN(N=O)C(=O)NCC(C)=O` showed a Potency of 0.443 mg/kg/day. For `CC(=O)CN(CC(O)CO)N=O` (stereo not given), the Potency was 0.754 mg/kg/day. In the case of `CN(C)CCN(C)N=O`, the Potency was 3.83 mg/kg/day. With `CC(=O)Nc1nc(-c2ccc([N+](=O)[O-])o2)cs1` the Potency was 8.91 mg/kg/day. In the case of `COCCl`, the Potency was 16.4 mg/kg/day. In the case of `O=C(O)c1ccc(O)c(O)c1`, the outcome was “inactive”. With `O=CNNc1nc(-c2ccc([N+](=O)[O-])o2)cs1` the Potency was 16.6 mg/kg/day. With `CN(CC(O)CO)N=O` (stereo not given) the Potency was 0.94 mg/kg/day. `[O-][Br+2]([O-])O` gave a Potency of 533 mg/kg/day. In the case of `Cc1cc(=O)[nH]c(=S)[nH]1`, the Potency was 53.4 mg/kg/day. For `CC1CN(N=O)CC(C)N1C` (stereo not given), the Potency was 1.32 mg/kg/day. For `C=O`, the outcome was “inactive; no positive results”. With `ClC1=C(Cl)[C@]2(Cl)[C@@H]3[C@@H]4C[C@@H]([C@H]5O[C@@H]45)[C@@H]3[C@@]1(Cl)C2(Cl)Cl` the outcome was “inactive; no positive results”. With `O=S(=O)([O-])[O-].[Cd+2]` the outcome was “inactive; no positive results”. `CC=O` was tested, and the Potency was 565 mg/kg/day. In the case of `CN(CCCC(=O)c1cccnc1)N=O`, the outcome was “inactive”. With `CN(C)C(=O)Cl` the Potency was 0.625 mg/kg/day. With `Clc1ccc(C(c2ccc(Cl)cc2)C(Cl)(Cl)Cl)cc1` the outcome was “inactive; no positive results”. Compound `CC(=O)CN(N=O)C(=O)NCCCl` has a Potency of 0.338 mg/kg/day. `CC(C)OC(=O)Nc1cccc(Cl)c1` was tested, and the outcome was “inactive; no positive results”. `O=NN1CCCC1c1cccnc1` (stereo not given) gave a Potency of 10.8 mg/kg/day. Work on `CC1CN(N=O)C(=O)O1` (stereo not given) yielded a Potency of 0.172 mg/kg/day. In the case of `CCO`, the outcome was “inactive; no positive results”. In the case of `ClC=C(Cl)Cl`, the outcome was “inactive; no positive results”. In the case of `C[C@@H]1O[C@@H](OC[C@H]2O[C@@H](Oc3c(-c4ccc(O)c(O)c4)oc4cc(O)cc(O)c4c3=O)[C@H](O)[C@@H](O)[C@@H]2O)[C@H](O)[C@H](O)[C@H]1O`, the outcome was “inactive; no positive results”. `CC(C)(OCc1ccc(-c2ccc(Cl)cc2)cc1)C(=O)O` was tested, and the outcome was “inactive; no positive results”. `CC(O)CN(CC(O)CO)N=O` (stereo not given) gave a Potency of 1.59 mg/kg/day. `O=NN1CCCC1` showed a Potency of 14.2 mg/kg/day. In the case of `COc1ccc(O)c(C(C)(C)C)c1`, the outcome was “inactive; no positive results”. Compound `CNNC` has a Potency of 0.179 mg/kg/day. With `O=NO` the outcome was “inactive; no positive results”. In the case of `O=Cc1ccco1`, the outcome was “inactive; no positive results”. In the case of `Cc1cccc(Nc2cc(Cl)nc(SCC(=O)O)n2)c1C`, the outcome was “inactive; no positive results”. Work on `NC(=O)/C(=C\c1ccc([N+](=O)[O-])o1)c1ccco1` yielded a Potency of 164 mg/kg/day. In the case of `CC(C)(Oc1ccc(C2CCCc3ccccc32)cc1)C(=O)O` (stereo not given), the outcome was “inactive; no positive results”. With `C=CC(=C)Cl` the outcome was “inactive; no positive results”. With `O=C(C1CCCCC1)N1CC(=O)N2CCc3ccccc3C2C1` (stereo not given) the outcome was “inactive; no positive results”. For `S=C=NCCc1ccccc1`, the outcome was “inactive”. `NNC(=O)c1ccncc1` was tested, and the outcome was “inactive; no positive results”. `Nc1ncn[nH]1` was tested, and the outcome was “inactive; no positive results”. For `[Cd+2].[Cl-].[Cl-]`, the outcome was “inactive; no positive results”. `O=c1c(O)c(-c2ccc(O)c(O)c2)oc2cc(O)cc(O)c12` was tested, and the outcome was “inactive; no positive results”. In the case of `CC(=O)CN(CCO)N=O`, the Potency was 0.997 mg/kg/day. For `c1ccc(Nc2ccc3ccccc3c2)cc1`, the outcome was “inactive; no positive results”. `CN(C)CCN(Cc1cccs1)c1ccccn1` was tested, and the outcome was “inactive; no positive results”. `CC(=O)Nc1ccc2c(c1)Cc1ccccc1-2` showed a Potency of 17.4 mg/kg/day. Work on `NC(=O)N(CCc1ccccc1)N=O` yielded a Potency of 0.964 mg/kg/day. For `NNCCO`, the outcome was “inactive; no positive results”. For `C=CCN(CC=C)N=O`, the Potency was 1.54 mg/kg/day. For `O=NN1CCCC1c1ccc[n+]([O-])c1` (stereo not given), the outcome was “inactive; no positive results”. In the case of `N=C1C=CC(=C(c2ccc(N)cc2)c2ccc(N)cc2)C=C1`, the outcome was “inactive; no positive results”. With `COC1=CC(=O)C[C@@H](C)[C@]12Oc1c(Cl)c(OC)cc(OC)c1C2=O` the outcome was “inactive; no positive results”. Work on `Clc1c(Cl)c(Cl)c(Cl)c(Cl)c1Cl` yielded a Potency of 4.96 mg/kg/day. With `NN` the Potency was 4.16 mg/kg/day. Compound `O=NN1CCOC1` has a Potency of 0.798 mg/kg/day. With `O=NN1CCCCC1` the Potency was 83.3 mg/kg/day. In the case of `O=c1ccc2ccccc2o1`, the outcome was “inactive; no positive results”. For `CNN`, the Potency was 11.5 mg/kg/day. Work on `CCN(N=O)C(=O)NCCO` yielded a Potency of 1.04 mg/kg/day. In the case of `CC1=CC(=C(c2ccc(N)cc2)c2ccc(N)cc2)C=CC1=N`, the outcome was “inactive; no positive results”. Compound `CCOC(N)=O` has a Potency of 65.2 mg/kg/day. `O=CNc1nc(-c2ccc([N+](=O)[O-])o2)cs1` was tested, and the Potency was 9.77 mg/kg/day. `O=NN1CCOCC1` gave a Potency of 3.57 mg/kg/day. `OCC1CO1` (stereo not given) was tested, and the Potency was 56.1 mg/kg/day. Compound `CC1CN(N=O)CC(C)N1N=O` (stereo not given) has a Potency of 3.1 mg/kg/day. With `O=NN(CCO)CC(O)CO` (stereo not given) the outcome was “inactive”. `ClC(Cl)=C(c1ccc(Cl)cc1)c1ccc(Cl)cc1` was tested, and the Potency was 202 mg/kg/day. Compound `O=NN1CCC1` has a Potency of 7.14 mg/kg/day. Compound `CC(=O)CN(N=O)C(N)=O` has a Potency of 0.13 mg/kg/day. In the case of `F[B-](F)(F)F`, the outcome was “inactive; no positive results”. `C=CCl` gave a Potency of 39.4 mg/kg/day.
